“Also recorded” adds a separate entry of the source. Where a SMILES comes first, the peptide text is derived from it. Bridges are numbered along the chain shown (N, C = ends). [ ]: non-standard residue; d: D form. R8 = C=CCCCCCC[C@@](C)(N)C(=O)O; S5 = C=CCCC[C@](C)(N)C(=O)O
Assays:
[1] = test system: liquid cancer cell lines with mutant p53; experiment: Multiplexed cytotoxicity assay: cell proliferation/cytotoxicity (relative cell count), 72 h, cell lines with mutant p53; type: cell-based
Description: The objective of this study was to concurrently evaluate peptide 1-induced cytotoxicity, p21 up-regulation and caspase-3 activation in multiple liquid cancer cell cell lines characterized as having either wild-type or mutated p53 in order to determine whether the cytotoxicity is PD-mediated.
(§1) Cell lines from hematologic liquid cancer cells, characterized for p53 mutant/wild-type status, were seeded into 384-well plates and incubated in a humidified atmosphere of 5% CO2 at 37° C. Peptide 1 was serially diluted and assayed over 10 concentrations, up to 30 μM, in a final assay concentration of 0.1% DMSO. Treatment was added 24 hours post cell seeding, when a time zero untreated cell plate was also generated to determine the number of doublings in the 72 hour assay period. About one hundred cells per well were evaluated, with each test condition run in duplicate wells. After a 72 hour incubation period, cells were fixed and stained with fluorescently labeled antibody and nuclear dye. In the same wells, nuclei were assessed for toxicity (dye uptake) by automated fluorescence microscopy; apoptosis was assayed by elevations in anti-active caspase-3 antibody; and cell cycle arrest was assayed by elevations in anti-p21 monoclonal antibody EA10.
(§2) Cell proliferation was measured by relative cell count, which was expressed as percent of control. […]

[2] = test system: hematologic cancer cell lines with wild-type p53; experiment: Multiplexed cytotoxicity assay: cell proliferation/cytotoxicity (relative cell count), 72 h, cell lines with wild-type p53; type: cell-based; conditions: liquid cancer cells expressing WT p53 protein
BV-173 leukemia cells = experiment: Multiplexed cytotoxicity assay: relative cell count in BV-173 cells (wild type p53); type: cell-based; conditions: wild type p53, 72 h
Description: as §1
(§3) Cell proliferation was measured by relative cell count, which was expressed as percent of control.
Those that did were most often characterized by significant inductions of both caspase-3 and p21. Results with BV-173 leukemia cells (Table 16) are representative of the typical responses with these cell lines.

[3] = test system: HEL-92-1-7 leukemia cells; experiment: Multiplexed cytotoxicity assay: relative cell count in HEL-92-1-7 cells (mutant p53); type: cell-based; conditions: mutant p53, 72 h
Description: as §1, §2
Results with HEL-92-1-7 leukemia cells (Table 17) are representative of the typical responses with these cell lines.

[4] = test system: cryopreserved hepatocytes; experiment: In vitro metabolite profile / stability in cryopreserved hepatocytes; type: in vitro ADME, mouse, rat, monkey, and human
Source text: (§4) Proteolysis is the major biotransformation pathway of peptide 1. […] The predominant metabolite was also observed in the plasma in both the rat and monkey 4-week GLP toxicology studies, with adequate exposures in these studies to provide characterization of its impact on the overall safety profile of peptide 1. […] Accumulation of the predominant metabolite was not observed with repeated twice-weekly dosing in rats or monkeys.

[5] = test system: human peripheral blood lymphocyte
rat bone marrow = experiment: In vivo micronucleus assay
Source text: (§5) Peptide 1 was negative in genetic toxicology studies, including bacterial mutagenicity (Ames), chromosomal aberrations (human peripheral blood lymphocyte) and in vivo micronucleus (rat bone marrow) assays.

[6] = 4-week monkey GLP toxicity study, twice-weekly IV dosing (toxicity and toxicokinetics); type: in vivo, monkeys
Source text: (§6) The 4-week multiple-dose GLP studies in rats and monkeys utilized twice-weekly IV dosing of peptide 1. The studies provided dose- and exposure-related assessments during both dosing and recovery periods, and results were utilized to define the maximum tolerated doses (MTD) and estimate the severely toxic dose for 10% (STD10) of rats and the highest non-severely toxic dose (HNSTD) in monkeys. All gross and microscopic signs of intolerance (e.g., reduced organ weights, sporadic findings of multi-tissue hemorrhage and hepatic necrosis) and changes in serum chemistry parameters were considered as secondary to red blood cell (RBC), platelet and/or white blood cell (WBC) depletions or anorexia and dehydration in both species.

[7] = Single-dose rat study of metabolism and elimination; type: in vivo
Source text: as §4

activated caspase-3 = experiment: Multiplexed cytotoxicity assay: activated caspase-3 (apoptosis) induction in p53 wild-type hematopoietic cell lines; type: cell-based
Description: as §1, §3

p21 = experiment: Multiplexed cytotoxicity assay: p21 induction in p53 wild-type hematopoietic cell lines; type: cell-based
Description: as §1

[8] = test system: bacterial mutagenicity (Ames); experiment: Bacterial mutagenicity (Ames)
Source text: as §5

[9] = test system: MV 4; 11 human leukemia xenograft; experiment: MV 4;11 human leukemia (AML) xenograft model, survival; type: in vivo; conditions: mice, 25 mg/kg, six bi-weekly doses
Description: In another study, MV 4; 11 human leukemia xenograft model was used in mice to assess the ability of peptide 1 to inhibit tumor growth and improve overall survival in AML, a highly aggressive liquid tumor. In this study, 25 mg/kg dose of peptide 1 was administered in six bi-weekly doses and compared to the results of mice treated with only cyclophosphamide, the control group. Mice were monitored individually for an endpoint of morbidity due to progression of the leukemia. All ten mice that received the control exited the study between days 21 and 28, offering a sensitive assay for activity.

[10] = 4-week rat GLP toxicity study, twice-weekly IV dosing (toxicity and toxicokinetics); type: in vivo, rats
Source text: as §6

[11] = Pharmacokinetic/toxicokinetic studies after IV administration in mice, rats and monkeys; type: in vivo
Source text: Pharmacokinetic studies characterize exposure kinetics following single IV administrations of peptide 1 in mice, rats and monkeys, including evaluations of two different dosing formulations in rats and monkeys. Using qualified liquid chromatography with tandem mass spectrometry (LC-MS-MS) methods for efficacy models and dose range-finding (DRF) studies, and validated methods for GLP safety studies, absorption was characterized in mice at the MED in efficacy models and in rats and monkeys at tolerated and non-tolerated doses in toxicology studies.

[12] = test system: cytochrome P450 (CYP) enzymes; experiment: In vitro cytochrome P450 induction; type: in vitro ADME
Source text: (§7) Inhibition or induction of cytochrome P450 (CYP) enzymes by peptide 1 appears to be negligible at clinically-relevant concentrations, although interactions are possible at high exposures of peptide 1 with drugs that are predominantly cleared by hepatobiliary transporters.
(§8) Based on these findings, the potential of clinically relevant drug-drug interactions for concomitant medications that are cleared through CYP-mediated mechanisms can be low.

[13] = Preclinical GLP safety studies in rodents and monkeys (overall profile); type: in vivo
Source text: Genotoxicity, gastrointestinal toxicity, cardiotoxicity, and immunogenicity were not observed.

plasma protein = experiment: In vitro plasma protein binding; type: in vitro ADME, mouse, rat, dog, monkey, human; conditions: for free peptide 1 fraction: human and monkey plasma
Description: The in vitro protein binding of peptide 1 was evaluated over a range of concentrations in mouse, rat and monkey plasma, as well as human plasma samples from normal subjects and hypoalbuminemic patients.

[14] = test system: cytochrome P450 (CYP) isoforms; experiment: In vitro cytochrome P450 inhibition; type: in vitro ADME
Source text: as §7, §8

[15] = in vivo, intravenous, 4-week monkey GLP toxicity study, range over doses
[16] = in vivo, intravenous, 4-week rat GLP toxicity study, range over doses

Structure (SMILES): CC(=O)N[C@@H](CC(C)C)C(=O)N[C@H](C(=O)N[C@@H](Cc1ccccc1)C(=O)N[C@]1(C)CCCCCC/C=C/CCC[C@@](C)(C(=O)N[C@@H](C)C(=O)N[C@@H](C)C(=O)N[C@@H](C)C(=O)N[C@@H](C)C(=O)N[C@@H](C)C(=O)N[C@H](C)C(N)=O)NC(=O)[C@H](CC(C)C)NC(=O)[C@H](CCC(N)=O)NC(=O)[C@H](C)NC(=O)[C@H](Cc2c[nH]c3ccccc23)NC(=O)[C@H](Cc2ccc(O)cc2)NC(=O)[C@H](CCC(=O)O)NC1=O)[C@@H](C)O [peptide 1] (Ac-LTF[R8]EYWAQL[S5]AAAAA[dA]-NH2; staple (E) 4-11)
- activity in in vitro liquid cancer cell growth assays ([1]; cells with mutations of p53): not in cells with mutations of p53
- character of cytotoxicity ([1]; liquid cancer cell lines containing mutated p53): cell cycle arrest without elevated apoptosis
- activity in in vitro liquid cancer cell growth assays [2]: demonstrates activity
- Relative Cell Count (%) Mean (BV-173 leukemia cells; 3.00E+00 μM): 15.0%
- Relative Cell Count (%) Mean (BV-173 leukemia cells; 3.00E+01 μM): 2.2%
- Relative Cell Count (%) Mean (BV-173 leukemia cells; 3.01E−01 μM): 31.8%
- Relative Cell Count (%) Mean (BV-173 leukemia cells; 3.01E−02 μM): 84.8%
- Relative Cell Count (%) Mean (BV-173 leukemia cells; 3.02E−03 μM): 99.9%
- Relative Cell Count (%) Mean (BV-173 leukemia cells; 9.49E+00 μM): 4.3%
- Relative Cell Count (%) Mean (BV-173 leukemia cells; 9.51E−01 μM): 14.3%
- Relative Cell Count (%) Mean (BV-173 leukemia cells; 9.52E−02 μM): 64.4%
- Relative Cell Count (%) Mean (BV-173 leukemia cells; 9.53E−03 μM): 94.9%
- Relative Cell Count (%) Mean (BV-173 leukemia cells; 9.55E−04 μM): 100.8%
- Relative Cell Count (%) Mean ([3]; 3.00E+00 μM): 79.2%
- Relative Cell Count (%) Mean ([3]; 3.00E+01 μM): 67.9%
- Relative Cell Count (%) Mean ([3]; 3.01E−01 μM): 77.8%
- Relative Cell Count (%) Mean ([3]; 3.01E−02 μM): 89.8%
- Relative Cell Count (%) Mean ([3]; 3.02E−03 μM): 96.8%
- Relative Cell Count (%) Mean ([3]; 9.49E+00 μM): 76.9%
- Relative Cell Count (%) Mean ([3]; 9.51E−01 μM): 81.9%
- Relative Cell Count (%) Mean ([3]; 9.52E−02 μM): 89.7%
- Relative Cell Count (%) Mean ([3]; 9.53E−03 μM): 98.2%
- Relative Cell Count (%) Mean ([3]; 9.55E−04 μM): 98.5%
- major biotransformation pathway ([4]; in vitro, across species): Proteolysis
- metabolite profile across species ([4]; mouse, rat, monkey, and human cryopreserved hepatocytes): same metabolite profile
- chromosomal aberrations [5]: negative
- in vivo micronucleus (rat bone marrow): negative
- exposure at the high-dose group ([6]; 20 mg/kg, 4-week monkey GLP toxicity study): apparent plateau in exposure
- platelet response ([6]; 4-week monkey GLP toxicity study, different dosings): dose-dependent decreases in platelets with recovery
- Cmax [6, 15]: 133 to 562 µg/mL
- clearance [6, 15]: 0.108 to 0.23 mL/min/kg
- half-life [6, 15]: 3.7 to 6 h
- AUC(0-inf) ([6]; in vivo, intravenous, 4-week monkey GLP toxicity study, range over doses, read-out: AUC0-∞): 813 to 1600 µg·h/mL
- AUC(0-inf) ([6]; in vivo, intravenous, monkey, 5 mg/kg, read-out: AUC0-∞ at HNSTD in monkeys): 813 µg·h/mL
- predominant metabolite plasma exposure relative to AUC ([6]; monkey, 4-week GLP toxicology study): 10%
- significant thrombocytopenia ([6]; monkeys, lowest dose level 5 mg/kg): complete lack of significant thrombocytopenia
- significant thrombocytopenia ([6]; monkeys, mid- and high-dose levels): only one animal
- HNSTD (highest non-severely toxic dose) ([6]; monkeys, twice-weekly IV, 4 weeks): 5 mg/kg
- dose proportionality of exposure ([6]; non-human primates): increased proportionally with dose
- predominant clearance pathway [7]: hepatobiliary metabolism and elimination
- apoptotic response (activated caspase-3) (activated caspase-3): robust apoptotic responses
- induction of p21 (p21): significant induction of p21
- bacterial mutagenicity (Ames) [8]: negative
- median overall survival [9]: 40 days
- Cmax [10, 16]: 49.9 to 186 µg/mL
- clearance [10, 16]: 0.32 to 0.472 mL/min/kg
- AUC(0-inf) ([10]; in vivo, intravenous, 4-week rat GLP toxicity study, range over doses, read-out: AUC0-∞): 90.5 to 562 µg·h/mL
- AUC(0-inf) ([10]; in vivo, intravenous, rat, 10 mg/kg, read-out: AUC0-∞ at rat STD10): 562 µg·h/mL
- predominant metabolite exposure relative to peptide 1 AUC ([10]; rat, 4-week GLP toxicology study): 6%
- dose proportionality of Cmax and AUC ([10]; rats): linear, dose-proportional increases
- STD10 (severely toxic dose for 10%) ([10]; rats, twice-weekly IV, 4 weeks): 10 mg/kg
- dose proportionality of exposure ([11]; rats and monkeys): increased proportionally with dose
- sex-based differences in PK ([11]; rats and monkeys): No significant sex-based differences
- accumulation following multiple doses ([11]; rats and monkeys, twice-weekly schedule): no accumulation
- accumulation of the predominant metabolite ([11]; repeated twice-weekly dosing in rats or monkeys): not observed
- induction of cytochrome P450 (CYP) enzymes [12]: negligible; also recorded: did not indicate any significant treatment-related effects
- Genotoxicity [13]: not observed
- Histopathology [13]: bone marrow hypocellularity consistent with mild to moderate myelosuppression
- cardiotoxicity [13]: not observed
- gastrointestinal toxicity [13]: not observed
- immunogenicity [13]: not observed
- free peptide 1 fraction (plasma protein; concentrations >200 μM): 12-14%
- free peptide 1 fraction (plasma protein; concentrations up to 150 μM): 3-4%
- fraction unbound (plasma protein; mouse and rat plasma up 250 µM): < 0.02
- fraction unbound (plasma protein; mouse, rat, dog, monkey, human, plasma of mice, rats, dogs, monkeys, and humans): 0.02 to 0.08
- inhibition of cytochrome P450 (CYP) isoforms [14]: negligible; also recorded: not an inhibitor
